Assay results published in patent US8791123B2, “Substituted pyrazolo[1,5-a]pyrimidine compounds as Trk kinase inhibitors” (Array Biopharma, Inc., priority 2009, dated 2014).

Tests used:
[1] = biological target: TrkA (histidine-tagged recombinant human TrkA, cytoplasmic domain) (Homo sapiens (Human), UniProt P04629); assay: TrkA ELISA Assay; type: biochemical; settings: Table 1; ELISA, 500 μM ATP; read-out: TrkA Enzyme IC50
In short: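 ELISA read-out: a peroxidase-linked anti-phosphotyrosine antibody (PY20, 0.2 μg/mL) with TMB substrate, absorbance at 450 nm after acid stop. The plate-bound substrate was poly(Glu,Ala,Tyr; 6:3:1) at 0.025 mg/mL, phosphorylated by the recombinant His-tagged human TrkA cytoplasmic domain in the presence of inhibitors.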

[2] = biological target: Human Jak2 kinase domain (Homo sapiens (Human), UniProt O60674); assay: Jak2 Inhibition Assay (Omnia kinase assay); type: biochemical; settings: Table 1; 500 μM ATP; >1000 nM when >50% inhibition not observed at 1000 nM; read-out: Jak2 Enzyme IC50
Sequence of Human Jak2 kinase domain (O60674 808-1132): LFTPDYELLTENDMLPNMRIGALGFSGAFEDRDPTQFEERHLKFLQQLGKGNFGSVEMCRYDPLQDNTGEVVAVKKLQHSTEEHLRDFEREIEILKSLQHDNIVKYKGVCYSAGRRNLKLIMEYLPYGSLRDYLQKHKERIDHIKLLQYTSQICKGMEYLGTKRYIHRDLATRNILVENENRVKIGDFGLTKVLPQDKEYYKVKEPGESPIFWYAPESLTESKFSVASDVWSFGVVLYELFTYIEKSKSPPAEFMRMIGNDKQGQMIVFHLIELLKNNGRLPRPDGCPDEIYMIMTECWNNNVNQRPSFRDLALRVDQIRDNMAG

Sequence of TrkA (histidine-tagged recombinant human TrkA, cytoplasmic domain) (P04629 440-796): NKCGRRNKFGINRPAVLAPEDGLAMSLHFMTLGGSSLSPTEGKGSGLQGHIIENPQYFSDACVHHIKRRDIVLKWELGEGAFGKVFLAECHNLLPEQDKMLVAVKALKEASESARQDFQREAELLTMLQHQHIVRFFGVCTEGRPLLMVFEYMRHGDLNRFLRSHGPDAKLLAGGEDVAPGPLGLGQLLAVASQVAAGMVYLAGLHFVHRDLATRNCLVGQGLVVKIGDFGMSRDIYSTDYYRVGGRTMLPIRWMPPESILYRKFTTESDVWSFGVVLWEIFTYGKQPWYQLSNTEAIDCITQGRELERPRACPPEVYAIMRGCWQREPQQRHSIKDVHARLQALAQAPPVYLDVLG

SMILES	IC50 [1]	IC50 [2]
Cc1ncc(F)cc1[C@H]1CCCN1c1ccn2ncc(C(=O)NCCO)c2n1 [Example 188, (R)-5-(2-(5-fluoro-2-methylpyridin-3-yl)pyrrolidin-1-yl)-N-(2-hydroxyethyl)pyrazolo[1,5-a]pyrimidine-3-carboxamide]	83 nM	> 1000 nM
COCCNC(=O)c1cnn2ccc(N3CCC[C@@H]3c3cc(F)cnc3C)nc12 [Example 191, (R)-5-(2-(5-fluoro-2-methylpyridin-3-yl)pyrrolidin-1-yl)-N-(2-methoxyethyl)pyrazolo[1,5-a]pyrimidine-3-carboxamide]	69.5 nM	> 1000 nM
Cc1ncc(F)cc1[C@H]1CCCN1c1ccn2ncc(C(=O)N3CC(O)C3)c2n1 [Example 192, (R)-(5-(2-(5-fluoro-2-methylpyridin-3-yl)pyrrolidin-1-yl)pyrazolo[1,5-a]pyrimidin-3-yl)(3-hydroxyazetidin-1-yl)methanone]	438 nM	> 1000 nM
Cc1ncc(F)cc1[C@H]1CCCN1c1ccn2ncc(C(=O)NC3(CO)CC3)c2n1 [Example 193, (R)-5-(2-(5-fluoro-2-methylpyridin-3-yl)pyrrolidin-1-yl)-N-(1-(hydroxymethyl)cyclopropyl)pyrazolo[1,5-a]pyrimidine-3-carboxamide]	15.6 nM	> 1000 nM
Cc1ncc(F)cc1[C@H]1CCCN1c1ccn2ncc(C(=O)N[C@H]3CC[C@H](O)C3)c2n1 [Example 196, 5-((R)-2-(5-fluoro-2-methylpyridin-3-yl)pyrrolidin-1-yl)-N-((1S,3S)-3-hydroxycyclopentyl)pyrazolo[1,5-a]pyrimidine-3-carboxamide]	6.8 nM	> 1000 nM
Cc1ncc(F)cc1[C@H]1CCCN1c1ccn2ncc(C(=O)N[C@@H]3CCC[C@H]3O)c2n1 [Example 197, 5-((R)-2-(5-fluoro-2-methylpyridin-3-yl)pyrrolidin-1-yl)-N-((1R,2R)-2-hydroxycyclopentyl)pyrazolo[1,5-a]pyrimidine-3-carboxamide]	4.8 nM	> 1000 nM
Cc1ncc(F)cc1[C@H]1CCCN1c1ccn2ncc(C(=O)N[C@H]3CN4CCC3CC4)c2n1 [Example 198, 5-((R)-2-(5-fluoro-2-methylpyridin-3-yl)pyrrolidin-1-yl)-N-((R)-quinuclidin-3-yl)pyrazolo[1,5-a]pyrimidine-3-carboxamide]	243 nM	> 1000 nM
CCc1ncc(F)cc1[C@H]1CCCN1c1ccn2ncc(C(=O)N[C@H]3CC[C@H](O)C3)c2n1 [Example 200, 5-((R)-2-(2-ethyl-5-fluoropyridin-3-yl)pyrrolidin-1-yl)-N-((1S,3S)-3-hydroxycyclopentyl)pyrazolo[1,5-a]pyrimidine-3-carboxamide]	12.7 nM	> 1000 nM
CC1(C)OCC(COc2ccc(F)cc2[C@H]2CCCN2c2ccn3ncc(C(=O)NC4CC4)c3n2)O1 (stereo partly drawn) [Example 204, N-cyclopropyl-5-((2R)-2-(2-((2,2-dimethyl-1,3-dioxolan-4-yl)methoxy)-5-fluorophenyl)pyrrolidin-1-yl)pyrazolo[1,5-a]pyrimidine-3-carboxamide]	16.6 nM	> 1000 nM
CC1(C)OCC(COc2ccc(F)cc2[C@H]2CCCN2c2ccn3ncc(C(N)=O)c3n2)O1 (stereo partly drawn) [Example 205, 5-((2R)-2-(2-((2,2-dimethyl-1,3-dioxolan-4-yl)methoxy)-5-fluorophenyl)pyrrolidin-1-yl)pyrazolo[1,5-a]pyrimidine-3-carboxamide]	14.3 nM	> 1000 nM
CC1(C)OCC(COc2cc(F)cc([C@H]3CCCN3c3ccn4ncc(C(=O)NC5CC5)c4n3)c2)O1 (stereo partly drawn) [Example 206, N-cyclopropyl-5-((2R)-2-(3-((2,2-dimethyl-1,3-dioxolan-4-yl)methoxy)-5-fluorophenyl)pyrrolidin-1-yl)pyrazolo[1,5-a]pyrimidine-3-carboxamide]	3.9 nM	> 1000 nM
O=C(NC1CC1)c1cnn2ccc(N3CCC[C@@H]3c3cc(F)cc(OCC(O)CO)c3)nc12 (stereo partly drawn) [Example 208, N-cyclopropyl-5-((2R)-2-(3-(2,3-dihydroxypropoxy)-5-fluorophenyl)pyrrolidin-1-yl)pyrazolo[1,5-a]pyrimidine-3-carboxamide]	1.7 nM	> 1000 nM
NC(=O)c1cnn2ccc(N3CCC[C@@H]3c3cc(F)cc(OCC(O)CO)c3)nc12 (stereo partly drawn) [Example 209, 5-((2R)-2-(3-(2,3-dihydroxypropoxy)-5-fluorophenyl)pyrrolidin-1-yl)pyrazolo[1,5-a]pyrimidine-3-carboxamide]	17.1 nM	> 1000 nM
CC1(NC(=O)c2cnn3ccc(N4[C@H](CO)CC[C@@H]4c4cncc(F)c4)nc23)CC1 [Example 214, 5-((2R,5S)-2-(5-fluoropyridin-3-yl)-5-(hydroxymethyl)pyrrolidin-1-yl)-N-(1-methylcyclopropyl)pyrazolo[1,5-a]pyrimidine-3-carboxamide]	8.6 nM	> 1000 nM
CC(C)NC(=O)c1cnn2ccc(N3[C@H](CO)CC[C@@H]3c3cncc(F)c3)nc12 [Example 215, 5-((2R,5S)-2-(5-fluoropyridin-3-yl)-5-(hydroxymethyl)pyrrolidin-1-yl)-N-isopropylpyrazolo[1,5-a]pyrimidine-3-carboxamide]	15.3 nM	> 1000 nM

The remaining lines, values ahead:

IC50 [1]	IC50 [2]	SMILES
2.5 nM	> 1000 nM	COCCNC(=O)c1cnn2ccc(N3CCC[C@@H]3c3cc(F)ccc3F)nc12 [Example 172, 5-((R)-2-(2,5-difluorophenyl)pyrrolidin-1-yl)-N-(2-methoxyethyl)pyrazolo[1,5-a]pyrimidine-3-carboxamide]
16.3 nM	> 1000 nM	C[C@@H](O)[C@H](CO)NC(=O)c1cnn2ccc(N3CCC[C@@H]3c3cc(F)ccc3F)nc12 [Example 174, 5-((R)-2-(2,5-difluorophenyl)pyrrolidin-1-yl)-N-((2S,3R)-1,3-dihydroxybutan-2-yl)pyrazolo[1,5-a]pyrimidine-3-carboxamide]
12.2 nM	> 1000 nM	C[C@H](O)[C@H](CO)NC(=O)c1cnn2ccc(N3CCC[C@@H]3c3cc(F)ccc3F)nc12 [Example 175, 5-((R)-2-(2,5-difluorophenyl)pyrrolidin-1-yl)-N-((2S,3S)-1,3-dihydroxybutan-2-yl)pyrazolo[1,5-a]pyrimidine-3-carboxamide]
27.2 nM	> 1000 nM	C[C@H](O)[C@@H](CO)NC(=O)c1cnn2ccc(N3CCC[C@@H]3c3cc(F)ccc3F)nc12 [Example 176, 5-((R)-2-(2,5-difluorophenyl)pyrrolidin-1-yl)-N-((2R,3S)-1,3-dihydroxybutan-2-yl)pyrazolo[1,5-a]pyrimidine-3-carboxamide]
1.8 nM	> 1000 nM	C[C@@H](CO)NC(=O)c1cnn2ccc(N3CCC[C@@H]3c3cc(F)ccc3F)nc12 [Example 177, 5-((R)-2-(2,5-difluorophenyl)pyrrolidin-1-yl)-N-((S)-1-hydroxypropan-2-yl)pyrazolo[1,5-a]pyrimidine-3-carboxamide]
2.5 nM	> 1000 nM	CC[C@@H](CO)NC(=O)c1cnn2ccc(N3CCC[C@@H]3c3cc(F)ccc3F)nc12 [Example 178, 5-((R)-2-(2,5-difluorophenyl)pyrrolidin-1-yl)-N-((S)-1-hydroxybutan-2-yl)pyrazolo[1,5-a]pyrimidine-3-carboxamide]
8.5 nM	> 1000 nM	CC(C)[C@@H](CO)NC(=O)c1cnn2ccc(N3CCC[C@@H]3c3cc(F)ccc3F)nc12 [Example 179, 5-((R)-2-(2,5-difluorophenyl)pyrrolidin-1-yl)-N-((S)-1-hydroxy-3-methylbutan-2-yl)pyrazolo[1,5-a]pyrimidine-3-carboxamide]
12.3 nM	> 1000 nM	CC(C)(C)[C@@H](CO)NC(=O)c1cnn2ccc(N3CCC[C@@H]3c3cc(F)ccc3F)nc12 [Example 180, 5-((R)-2-(2,5-difluorophenyl)pyrrolidin-1-yl)-N-((S)-1-hydroxy-3,3-dimethylbutan-2-yl)pyrazolo[1,5-a]pyrimidine-3-carboxamide]
6.9 nM	> 1000 nM	Cc1ncc(F)cc1[C@H]1CCCN1c1ccn2ncc(C(=O)NC(C)(C)C)c2n1 [Example 183, (R)-N-tert-butyl-5-(2-(5-fluoro-2-methylpyridin-3-yl)pyrrolidin-1-yl)pyrazolo[1,5-a]pyrimidine-3-carboxamide]
7.4 nM	> 1000 nM	Cc1ncc(F)cc1[C@H]1CCCN1c1ccn2ncc(C(=O)NC(C)C)c2n1 [Example 184, (R)-5-(2-(5-fluoro-2-methylpyridin-3-yl)pyrrolidin-1-yl)-N-isopropylpyrazolo[1,5-a]pyrimidine-3-carboxamide]
57.1 nM	> 1000 nM	CNC(=O)c1cnn2ccc(N3CCC[C@@H]3c3cc(F)cnc3C)nc12 [Example 186, (R)-5-(2-(5-fluoro-2-methylpyridin-3-yl)pyrrolidin-1-yl)-N-methylpyrazolo[1,5-a]pyrimidine-3-carboxamide]
76.4 nM	> 1000 nM	Cc1ncc(F)cc1[C@H]1CCCN1c1ccn2ncc(C(=O)NC[C@@H](C)O)c2n1 [Example 189, (R)-5-(2-(5-fluoro-2-methylpyridin-3-yl)pyrrolidin-1-yl)-N-((R)-2-hydroxypropyl)pyrazolo[1,5-a]pyrimidine-3-carboxamide]
19.3 nM	> 1000 nM	CC(C)(C)NC(=O)c1cnn2ccc(N3CCC[C@@H]3c3cc(F)c[nH]c3=O)nc12 [Example 202, (R)—N-tert-butyl-5-(2-(5-fluoro-2-oxo-1,2-dihydropyridin-3-yl)pyrrolidin-1-yl)pyrazolo[1,5-a]pyrimidine-3-carboxamide]
3.3 nM	> 1000 nM	O=C(NC1CC1)c1cnn2ccc(N3CCC[C@@H]3c3cc(F)ccc3OCC(O)CO)nc12 (stereo partly drawn) [Example 210, N-cyclopropyl-5-((2R)-2-(2-(2,3-dihydroxypropoxy)-5-fluorophenyl)pyrrolidin-1-yl)pyrazolo[1,5-a]pyrimidine-3-carboxamide]
